Measured values as given in PMC3326631, “Synthesis and biological evaluation of nojirimycin- and pyrrolidine-based trehalase inhibitors” (Beilstein Journal of Organic Chemistry, 2012).
“Also recorded” adds a separate entry of the source. Read-outs that look alike come from different tables or passages of the source.

How the values were obtained:
[1] = molecular target: T1, porcine kidney trehalase (Sus scrofa, UniProt I3LIR5); assay: Trehalase inhibition, coupled assay with glucose-6-phosphate dehydrogenase and hexokinase (porcine enzyme); assay type: biochemical; conditions: for inhibitory activity against porcine trehalase (in words): screening at fixed concentration of 1 mM; for IC50 / IC50 porcine kidney trehalase: trehalose fixed close to Km (2.5 mM), 30 °C, mean ± SE of three independent experiments
T1 construct: trehalases from porcine kidney and insects have different recognition requirements; from tissue; host or cells: porcine kidney
T1 sequence (I3LIR5 24-583): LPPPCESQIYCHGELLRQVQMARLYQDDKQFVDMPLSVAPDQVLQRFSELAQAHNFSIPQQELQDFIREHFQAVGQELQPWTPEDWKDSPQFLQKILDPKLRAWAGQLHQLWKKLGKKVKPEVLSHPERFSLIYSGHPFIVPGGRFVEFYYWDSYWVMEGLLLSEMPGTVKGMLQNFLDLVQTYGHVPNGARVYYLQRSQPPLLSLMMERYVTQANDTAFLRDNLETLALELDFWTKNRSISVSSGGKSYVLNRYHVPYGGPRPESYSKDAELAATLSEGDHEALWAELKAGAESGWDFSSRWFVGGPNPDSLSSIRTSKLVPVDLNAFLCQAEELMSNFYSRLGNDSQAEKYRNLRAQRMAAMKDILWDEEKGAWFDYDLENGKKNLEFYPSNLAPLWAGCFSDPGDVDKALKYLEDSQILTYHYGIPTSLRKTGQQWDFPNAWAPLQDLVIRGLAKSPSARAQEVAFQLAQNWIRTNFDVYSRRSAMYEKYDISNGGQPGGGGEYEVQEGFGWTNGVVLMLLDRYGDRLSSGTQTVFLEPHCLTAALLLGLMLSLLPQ
Experimental: Synthesized compounds 10, 12–14, 16, 17 and 19–21 were tested for their inhibitory activity against insect (C. riparius) and porcine kidney trehalase.
Even if the synthesis unexpectedly afforded a structurally quite heterogeneous set of compounds, biological data give some hints toward the design of selective inhibitors of trehalases of different origin. Trehalase activity was measured through a coupled assay with glucose-6-phosphate dehydrogenase and hexokinase according to Wegener et al.. To examine the potential of each compound as a trehalase inhibitor, screening assays of potential inhibitors were carried out at a fixed concentration of 1 mM. […] Initial rates as a function of inhibitor concentration were fitted to the following equation: […]
(§1) where νi and ν are the initial rate in the presence and in the absence of the inhibitor, respectively, [I] is the inhibitor concentration, IC50 is the inhibitor concentration producing half-maximal inhibition, and n is the Hill coefficient.
(§2) All enzyme assays were performed in triplicate at 30 °C by using sample volumes varying from 5 to 20 µL in 1 mL test tubes and using a Cary3 UV–vis spectrophotometer. Enzyme activities were analyzed by Cary Win UV application software for Windows XP. The specific activity (U mg^−1) was expressed as µmol min^−1(mg protein)^−1. Values were expressed as mean ± SE of replicated.

[2] = molecular target: C. riparius trehalase (Chironomus riparius, UniProt J7EJ73); assay: Trehalase inhibition, coupled assay with glucose-6-phosphate dehydrogenase and hexokinase (insect enzyme); assay type: biochemical; conditions: for selectivity between insect and porcine trehalase (times more active): C. riparius trehalase versus porcine kidney trehalase, from IC50 values; for IC50 C. riparius trehalase: trehalose fixed close to Km (0.5 mM), 30 °C, mean ± SE of three independent experiments; for inhibitory activity against insect trehalase (in words): screening at fixed concentration of 1 mM
Experimental: Trehalase activity was measured through a coupled assay with glucose-6-phosphate dehydrogenase and hexokinase according to Wegener et al.. To examine the potential of each compound as a trehalase inhibitor, screening assays of potential inhibitors were carried out at a fixed concentration of 1 mM. […] Initial rates as a function of inhibitor concentration were fitted to the following equation: […]
as §1, §2

[3] = molecular target: T1, porcine kidney trehalase; conditions: mean ± SE, cited from earlier work

C. riparius trehalase, sequence (J7EJ73 entry or part of it): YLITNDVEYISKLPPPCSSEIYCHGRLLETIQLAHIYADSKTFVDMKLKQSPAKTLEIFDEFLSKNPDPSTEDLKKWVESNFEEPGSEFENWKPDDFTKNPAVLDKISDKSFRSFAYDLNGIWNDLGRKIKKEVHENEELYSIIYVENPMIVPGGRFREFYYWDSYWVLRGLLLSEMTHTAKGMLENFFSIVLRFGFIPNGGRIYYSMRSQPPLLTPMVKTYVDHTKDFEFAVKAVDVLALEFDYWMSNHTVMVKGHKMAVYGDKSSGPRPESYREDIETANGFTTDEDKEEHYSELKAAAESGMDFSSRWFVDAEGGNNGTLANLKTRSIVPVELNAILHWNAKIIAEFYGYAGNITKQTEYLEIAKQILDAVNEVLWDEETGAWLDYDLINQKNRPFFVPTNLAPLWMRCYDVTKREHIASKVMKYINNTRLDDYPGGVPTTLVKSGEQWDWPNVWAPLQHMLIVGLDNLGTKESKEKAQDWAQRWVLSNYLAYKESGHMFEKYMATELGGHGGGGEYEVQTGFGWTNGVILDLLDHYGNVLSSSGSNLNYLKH

| SMILES | inhibitory activity against porcine trehalase (in words) [1] | selectivity between insect and porcine trehalase (times more active) [2] | IC50 porcine kidney trehalase [1] | inhibitory activity against insect trehalase (in words) [2] | other results |
| --- | --- | --- | --- | --- | --- |
| NC(=O)N1C[C@H](O)[C@@H](O)[C@H](O)[C@H]1CO [Compound 12] | active | five times |  |  | IC50 [1]: 154 ± 17 µM |
| OC[C@H]1NC[C@@H](O)[C@@H]1O [Compound 9, DAB-1, reference compound] |  | twice more active on porcine trehalase |  |  | IC50 ([3]; trehalose fixed at Km): 10.6 ± 2.42 µM |
| CCC[C@H]1N[C@H](CO)[C@@H](O)[C@H](O)[C@H]1O [Compound 13] | active | around ten times more active towards insect trehalase; also recorded: ten-fold selectivity towards insect trehalase |  |  | IC50 [1]: 109 ± 38 µM |
| CCCCCCCC[C@H]1N[C@H](CO)[C@@H](O)[C@@H]1O [Compound 21] |  |  | no inhibition |  | IC50 C. riparius trehalase [2]: no inhibition |
| CCC[C@@H]1N[C@H](CO)[C@@H](O)[C@H]1O [Compound 17] | do not possess any activity |  | no inhibition | do not possess any activity | IC50 C. riparius trehalase [2]: no inhibition |
| CC[C@@H]1[C@H](O)[C@@H](O)[C@H](O)[C@@H](CO)N1C(=O)NCc1ccccc1 [Compound 8] |  |  |  |  | IC50 ([3]; trehalose fixed at Km): 100 ± 8.82 µM |
| CCC[C@@H]1[C@H](O)[C@@H](O)[C@H](O)[C@@H](CO)N1C(=O)NCc1ccccc1 [Compound 10] | no activity |  | no inhibition | inhibitors only of insect trehalase |  |
| CCC[C@H]1N[C@H](CO)[C@@H](O)[C@@H]1O [Compound 14] | no activity |  | no inhibition | inhibitors only of insect trehalase |  |
| OC[C@H]1NC[C@H](O)[C@@H](O)[C@@H]1O [Compound 7, 1-deoxynojirimycin, reference compound] |  | only twice as active on insect trehalase |  |  | IC50 [3]: 5.96 ± 0.62 µM |
| CCC[C@H]1[C@H](O)[C@H](O)[C@@H](CO)N1C(N)=O [Compound 19] | do not possess any activity |  | no inhibition | do not possess any activity | IC50 C. riparius trehalase [2]: no inhibition |
| CCCCCCCCN1C[C@@H](O)[C@H](O)[C@H]1CO [Compound 20] | active |  |  |  | IC50 [1]: 537 ± 80 µM |
| CCC[C@@H]1[C@@H](O)[C@H](O)[C@@H](CO)N1C(N)=O [Compound 16] | no activity |  | no inhibition | inhibitors only of insect trehalase |  |
